The values below come from patent publication US20190381500A1, “CELL CONTAINED CONTAINER AND CELL CONTAINED CONTAINER PRODUCING METHOD, AND CELL CHIP” (priority 2018, published 2019).

For data set [1], the system named is nerve cells C and nerve cells D (differentiated from human induced iPS cells). The data set is described as follows: Drug efficacy screening (Hoechst 33342 / PI / Calcein AM staining, fluorescence microscope cell counting) in cell contained container 2. In kind it is cell-based. The note with it: for Living cells / Dead cells: next day after addition. The method, then: The amount of the drug solution used was from 50 μL through 5,000 μL.
On the next day after the drug solution was added, the culture medium in each concave of the cell contained container was removed, and the concaves were washed with Hank's balanced salt solution (HBSS, available from Thermo Fisher Scientific Inc.) (200 microliters) at room temperature. After washing, HOECHST 33342 (available from Thermo Fisher Scientific Inc.), PI (Propidium Iodide, available from Cosmo Bio Co., Ltd.), and CALSEIN AM (available from Takara Bio Inc.) were each diluted 1,000-fold with HBSS, to prepare a stain mixture liquid, and the prepared stain mixture liquid was added in an amount of 200 microliters each. The cell contained container was then left to stand still in a 5% CO2 incubator for 20 minutes.
A fluorescence microscope image of the cell stained container after staining was completed was captured with a fluorescence microscope. The obtained fluorescence microscope image was processed with image processing software IMAGE J, to calculate the number of cells and the number of dead cells.

For data set [2], the system named is IL-8 production of nerve cells C and nerve cells D. The data set is described as follows: Cytotoxicity evaluation: inflammatory substance production (IL-8 ELISA). It is filed as cell-based, human. The note with it: 100, 160, 220 micromoles; 20 hours; FIG. 25. The method, then:
In the same manner as in the evaluation of the cell survival rate, a N9 culture medium (available from Elixirgen Scientific, LLC) to which zinc chloride was added was added, and the container was left to stand still overnight (for 20 hours) in a CO2 incubator at 37 degrees C.
In order to evaluate the influence of zinc chloride on inflammatory substance production, only the culture medium was recovered with a micropipette. IL-8 production was measured by ELISA method using a protein measurement kit (product name: HUMAN IL-8 ELISA READY-SET-GO! (registered trademark), available from Affymetrix), and absorbances at 450 nm, and as a reference value, at 570 nm were measured with a plate reader. The results are plotted in FIG. 25.

Data set [3] has as its system nerve cells C and nerve cells D. In kind it is cell-based, human. Particulars: 100, 160, 220 micromoles; 20 hours; FIG. 23. The method, then:
N9 culture media (available from Elixirgen Scientific, LLC) to which zinc chloride as a test substance at four concentration conditions of 0 micromoles, 100 micromoles, 160 micromoles, and 220 micromoles was added respectively were added in the evaluation container of Production example 2 in an amount of 100 microliters with a micropipette, and the container was left to stand still overnight (for 20 hours) in a CO2 incubator at 37 degrees C.
Next, in order to evaluate the influence of zinc chloride on the cell survival rate, a WST-1 reagent (product name: PREMIX WST-1 CELL PROLIFERATION ASSAY SYSTEM, available from Takara Bio Inc.) was added in an amount of 10 microliters per well (concave), and left to stand still for 1 hour in an CO2 incubator at 37 degrees C. to be allowed to undergo reaction. Subsequently, absorbances at 450 nm, and as a reference value, at 570 nm were measured with a plate reader (instrument name: CYTATION 5, available from Bio Tek Instruments Inc.), to evaluate “cell survival rate”. The results are plotted in FIG. 23.

Data set [4] shares this test system. It is filed as cell-based, human. The note with it: 100, 160, 220 micromoles; 20 hours; FIG. 24. The method, then:
In the same manner as in the evaluation of the cell survival rate, the N9 culture medium to which zinc chloride was added as described above was added, and the container was left to stand still overnight (for 20 hours) in a CO2 incubator at 37 degrees C.
In order to evaluate the influence of zinc chloride on cell membrane damage, only the culture medium was recovered with a micropipette and put in a 96-well cell contained container, a LDH assay reagent (product name: CYTOTOXICITY DETECTION KIT, available from Roche) was further added to each, and the resultant was allowed to undergo reaction at room temperature (23 degrees C.) for 5 minutes. Subsequently, absorbances at 492 nm, and as a reference value, at 620 nm were measured with a plate reader, to evaluate “cell membrane damage rate”. The results are plotted in FIG. 24.

[5] abbreviates: drug concentration 0.1 micromoles.
Where [6] appears, read: drug concentration 0.3 micromoles.
The mark [7] stands for this setting: drug concentration 1.0 micromoles.
[8] abbreviates: drug concentration 3.0 micromoles.
Where [9] appears, read: drug concentration 10 micromoles.

As to `CN[C@@H]1C[C@H]2O[C@@](C)([C@@H]1OC)n1c3ccccc3c3c4c(c5c6ccccc6n2c5c31)C(=O)NC4` [STAUROSPORINE], the “Drug efficacy rate (living cells/dead cells)” value in data set [1] (setting [5]) was 70%; in data set [1] (setting [6]), 57%; in data set [1] (setting [7]), 54%; in data set [1] (setting [8]), 42%; in data set [1] (setting [9]), 2%. For the same compound, the Living cells in data set [1] (setting [5]) was 271 cell; in data set [1] (setting [6]) it was 270 cell; in data set [1] (setting [7]) it was 268 cell; in data set [1] (setting [8]) it was 197 cell; in data set [1] (setting [9]), 11 cell. In addition, the Dead cells in data set [1] (setting [6]) is reported as 202 cell; in data set [1] (setting [8]) it was 270 cell; in data set [1] (setting [9]) it was 474 cell.
On to `[Cl-].[Cl-].[Zn+2]` [zinc chloride], for which, in data set [2], the “inflammatory substance production (IL-8), nerve cells C compared with nerve cells D” value was “almost the same toxic response tendency”. Further, the “cell survival rate, nerve cells C compared with nerve cells D” value in data set [3] is given as “almost the same toxic response tendency”. The “cell membrane damage rate, nerve cells C compared with nerve cells D” value in data set [4] is “almost the same toxic response tendency”.
